Experimental data: PubChem BioAssay AID2060882 (Molecular Pharmacology Branch, DTP, NCI, 2025)
“And” between values parts separate entries of the source, which are not always exact repeats. Equal values may be shown once.

Test system: 898857-211-R-J1-PDC complex spheroids, growth % test/control
Experiment: Anticancer human tumor 898857-211-R-J1-PDC patient-derived melanoma cell line growth inhibition [RAS]
Conditions: for viability, T/C: stronger effect = lower value
Method in brief: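 Tumour cells grown as complex spheroids with HUVEC endothelial cells and mesenchymal stem cells, treated with RAS pathway inhibitor combinations. Each agent spans half-log steps from near clinical Cmax, or 10 microM where Cmax is unknown.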

[1] = curve of first compound, second compound 0.0316 µM
[2] = curve of first compound, second compound 0.1 µM
[3] = curve of first compound, second compound 0.316 µM
[4] = curve of first compound, second compound 1 µM
[5] = second compound 0.0316 µM, first compound 0.0316 µM
[6] = second compound 0.0316 µM, first compound 0.1 µM
[7] = second compound 0.0316 µM, first compound 0.316 µM
[8] = second compound 0.0316 µM, first compound 1 µM
[9] = second compound 0.1 µM, first compound 0.0316 µM
[10] = second compound 0.1 µM, first compound 0.1 µM
[11] = second compound 0.1 µM, first compound 0.316 µM
[12] = second compound 0.1 µM, first compound 1 µM
[13] = second compound 0.316 µM, first compound 0.0316 µM
[14] = second compound 0.316 µM, first compound 0.1 µM
[15] = second compound 0.316 µM, first compound 0.316 µM
[16] = second compound 0.316 µM, first compound 1 µM
[17] = second compound 1 µM, first compound 0.0316 µM
[18] = second compound 1 µM, first compound 0.1 µM
[19] = second compound 1 µM, first compound 0.316 µM
[20] = second compound 1 µM, first compound 1 µM
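Note: spheroids exposed to compound for seven days before readout.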
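Throughout, for viability, T/C: 100% = DMSO vehicle control wells.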

## NC1c2ccccc2OC12CCN(c1cnc3c(N4CCCc5ncccc54)n[nH]c3n1)CC2 (stereo not drawn) + C=CC(=O)N1CCN(c2nc(OCC3CCCN3C)nc3c(F)c(-c4nc(N)cc(C)c4C(F)(F)F)c(Cl)cc23)C(C)C1
Curve of first compound, second compound 0.00316 µM
  IC50: > 10000 nM
Curve of first compound, second compound 0.01 µM
  IC50: > 10000 nM
[1]
  IC50: > 10000 nM
[2]
  IC50: > 10000 nM
[3]
  IC50: > 10000 nM
[4]
  IC50: > 10000 nM
Second compound 0.00316 µM, first compound 0.0316 µM
  viability, T/C: 92.5%
Second compound 0.00316 µM, first compound 0.1 µM
  viability, T/C: 98%
Second compound 0.00316 µM, first compound 0.316 µM
  viability, T/C: 92.8%
Second compound 0.00316 µM, first compound 1 µM
  viability, T/C: 89.2%
Second compound 0.00316 µM, first compound 3.16 µM
  viability, T/C: 79.9%
Second compound 0.00316 µM, first compound 10 µM
  viability, T/C: 75%
Second compound 0.01 µM, first compound 0.0316 µM
  viability, T/C: 94.9%
Second compound 0.01 µM, first compound 0.1 µM
  viability, T/C: 85.9%
Second compound 0.01 µM, first compound 0.316 µM
  viability, T/C: 87.2%
Second compound 0.01 µM, first compound 1 µM
  viability, T/C: 83.3%
Second compound 0.01 µM, first compound 3.16 µM
  viability, T/C: 81.6%
Second compound 0.01 µM, first compound 10 µM
  viability, T/C: 78.6%
[5]
  viability, T/C: 88.3%
[6]
  viability, T/C: 85.8%
[7]
  viability, T/C: 88.2%
[8]
  viability, T/C: 86.2%
Second compound 0.0316 µM, first compound 3.16 µM
  viability, T/C: 87.3%
Second compound 0.0316 µM, first compound 10 µM
  viability, T/C: 71.8%
[9]
  viability, T/C: 98.6%
[10]
  viability, T/C: 89.8%
[11]
  viability, T/C: 97.3%
[12]
  viability, T/C: 99.5%
Second compound 0.1 µM, first compound 3.16 µM
  viability, T/C: 103%
Second compound 0.1 µM, first compound 10 µM
  viability, T/C: 74.1%
[13]
  viability, T/C: 112%
[14]
  viability, T/C: 103%
[15]
  viability, T/C: 101%
[16]
  viability, T/C: 107%
Second compound 0.316 µM, first compound 3.16 µM
  viability, T/C: 102%
Second compound 0.316 µM, first compound 10 µM
  viability, T/C: 76%
[17]
  viability, T/C: 116%
[18]
  viability, T/C: 93.6%
[19]
  viability, T/C: 108%
[20]
  viability, T/C: 94.2%
Second compound 1 µM, first compound 3.16 µM
  viability, T/C: 87.3%
Second compound 1 µM, first compound 10 µM
  viability, T/C: 58%

## Nc1ccn(C2OC(CO)C(O)C2(F)F)c(=O)n1 (stereo not drawn) + C#Cc1c(F)ccc2cc(O)cc(-c3ncc4c(N5CC6CCC(C5)N6)nc(OCC56CCCN5CC(F)C6)nc4c3F)c12
[1]
  IC50: 7.32 nM
[2]
  IC50: 7.52 nM
[3]
  IC50: 7.89 nM
[4]
  IC50: 7.11 nM
Curve of first compound, second compound 3.16 µM
  IC50: 7.22 nM
Curve of first compound, second compound 10 µM
  IC50: < 3.16 nM
Second compound 0.0316 µM, first compound 0.00316 µM
  viability, T/C: 105%
Second compound 0.0316 µM, first compound 0.01 µM
  viability, T/C: 29.7%
[5]
  viability, T/C: 6.72%
[6]
  viability, T/C: 5%
[7]
  viability, T/C: 5.45%
[8]
  viability, T/C: 5.38%
Second compound 0.1 µM, first compound 0.00316 µM
  viability, T/C: 92.7%
Second compound 0.1 µM, first compound 0.01 µM
  viability, T/C: 36%
[9]
  viability, T/C: 7.32%
[10]
  viability, T/C: 5.55%
[11]
  viability, T/C: 5.77%
[12]
  viability, T/C: 5.83%
Second compound 0.316 µM, first compound 0.00316 µM
  viability, T/C: 97.4%
Second compound 0.316 µM, first compound 0.01 µM
  viability, T/C: 37.7%
[13]
  viability, T/C: 7.43%
[14]
  viability, T/C: 4.86%
[15]
  viability, T/C: 5.48%
[16]
  viability, T/C: 5.75%
Second compound 1 µM, first compound 0.00316 µM
  viability, T/C: 91.7%
Second compound 1 µM, first compound 0.01 µM
  viability, T/C: 32.4%
[17]
  viability, T/C: 8.35%
[18]
  viability, T/C: 5.57%
[19]
  viability, T/C: 4.9%
[20]
  viability, T/C: 5.48%
Second compound 3.16 µM, first compound 0.00316 µM
  viability, T/C: 99%
Second compound 3.16 µM, first compound 0.01 µM
  viability, T/C: 30.7%
Second compound 3.16 µM, first compound 0.0316 µM
  viability, T/C: 7.65%
Second compound 3.16 µM, first compound 0.1 µM
  viability, T/C: 6.3%
Second compound 3.16 µM, first compound 0.316 µM
  viability, T/C: 5.81%
Second compound 3.16 µM, first compound 1 µM
  viability, T/C: 5.63%
Second compound 10 µM, first compound 0.00316 µM
  viability, T/C: 46.4%
Second compound 10 µM, first compound 0.01 µM
  viability, T/C: 25.8%
Second compound 10 µM, first compound 0.0316 µM
  viability, T/C: 7.48%
Second compound 10 µM, first compound 0.1 µM
  viability, T/C: 6.16%
Second compound 10 µM, first compound 0.316 µM
  viability, T/C: 6.42%
Second compound 10 µM, first compound 1 µM
  viability, T/C: 5.33%

## CCc1c2c(nc3ccc(O)cc13)-c1cc3c(c(=O)n1C2)COC(=O)[C@]3(O)CC + CCn1c(-c2cc(N3CCN(C)CC3)cnc2C(C)OC)c2c3cc(ccc31)-c1csc(n1)CC(NC(=O)C1CC1C)C(=O)N1CCCC(N1)C(=O)OCC(C)(C)C2
Curve of first compound, second compound 0.000949 µM
  IC50: 3.72 nM
Curve of first compound, second compound 0.003 µM
  IC50: 3.54 nM
Curve of first compound, second compound 0.00949 µM
  IC50: 3.37 nM
Curve of first compound, second compound 0.03 µM
  IC50: 3.84 nM
Curve of first compound, second compound 0.0949 µM
  IC50: 3.78 nM
Curve of first compound, second compound 0.3 µM
  IC50: 3.6 nM
Second compound 0.000949 µM, first compound 0.000949 µM
  viability, T/C: 78.6%
Second compound 0.000949 µM, first compound 0.003 µM
  viability, T/C: 55.3%
Second compound 0.000949 µM, first compound 0.00949 µM
  viability, T/C: 25.9%
Second compound 0.000949 µM, first compound 0.03 µM
  viability, T/C: 8.36%
Second compound 0.000949 µM, first compound 0.0949 µM
  viability, T/C: 6.43%
Second compound 0.000949 µM, first compound 0.3 µM
  viability, T/C: 6.55%
Second compound 0.003 µM, first compound 0.000949 µM
  viability, T/C: 79.7%
Second compound 0.003 µM, first compound 0.003 µM
  viability, T/C: 53.8%
Second compound 0.003 µM, first compound 0.00949 µM
  viability, T/C: 25.5%
Second compound 0.003 µM, first compound 0.03 µM
  viability, T/C: 8.25%
Second compound 0.003 µM, first compound 0.0949 µM
  viability, T/C: 8.03%
Second compound 0.003 µM, first compound 0.3 µM
  viability, T/C: 5.94%
Second compound 0.00949 µM, first compound 0.000949 µM
  viability, T/C: 82.9%
Second compound 0.00949 µM, first compound 0.003 µM
  viability, T/C: 52.6%
Second compound 0.00949 µM, first compound 0.00949 µM
  viability, T/C: 24.3%
Second compound 0.00949 µM, first compound 0.03 µM
  viability, T/C: 9.47%
Second compound 0.00949 µM, first compound 0.0949 µM
  viability, T/C: 7.12%
Second compound 0.00949 µM, first compound 0.3 µM
  viability, T/C: 7.62%
Second compound 0.03 µM, first compound 0.000949 µM
  viability, T/C: 79.3%
Second compound 0.03 µM, first compound 0.003 µM
  viability, T/C: 56.2%
Second compound 0.03 µM, first compound 0.00949 µM
  viability, T/C: 27%
Second compound 0.03 µM, first compound 0.03 µM
  viability, T/C: 9.94%
Second compound 0.03 µM, first compound 0.0949 µM
  viability, T/C: 7.45%
Second compound 0.03 µM, first compound 0.3 µM
  viability, T/C: 5.98%
Second compound 0.0949 µM, first compound 0.000949 µM
  viability, T/C: 86.1%
Second compound 0.0949 µM, first compound 0.003 µM
  viability, T/C: 55.3%
Second compound 0.0949 µM, first compound 0.00949 µM
  viability, T/C: 28%
Second compound 0.0949 µM, first compound 0.03 µM
  viability, T/C: 9.13%
Second compound 0.0949 µM, first compound 0.0949 µM
  viability, T/C: 7.78%
Second compound 0.0949 µM, first compound 0.3 µM
  viability, T/C: 6.37%
Second compound 0.3 µM, first compound 0.000949 µM
  viability, T/C: 87.5%
Second compound 0.3 µM, first compound 0.003 µM
  viability, T/C: 55.5%
Second compound 0.3 µM, first compound 0.00949 µM
  viability, T/C: 20.6%
Second compound 0.3 µM, first compound 0.03 µM
  viability, T/C: 9.8%
Second compound 0.3 µM, first compound 0.0949 µM
  viability, T/C: 7.03%
Second compound 0.3 µM, first compound 0.3 µM
  viability, T/C: 7.37%

## CCN1CCN(Cc2ccc(Nc3ncc(F)c(-c4cc(F)c5nc(C)n(C(C)C)c5c4)n3)nc2)CC1
Compound 0.00316 µM
  viability, T/C: 112% and 130% and 92.5%
Compound 0.01 µM
  viability, T/C: 92% (2×) and 103%
Compound 0.0316 µM
  viability, T/C: 97.3% and 96% and 83%
Compound 0.1 µM
  viability, T/C: 73.1% and 62.7% and 65.1%
Compound 0.316 µM
  viability, T/C: 51.2% and 51.1% and 55.3%
Compound 1 µM
  viability, T/C: 44.4% and 36% and 33.4%
Curve of compound
  IC50: 444 nM and 323 nM and 370 nM
